Measurements as given in ChEMBL document CHEMBL1201862, “PubChem BioAssay data set” (2004).
The source made the active and inactive calls.

How the values were obtained:
[1] = target: T1, DNA repair protein RAD52 homolog (Homo sapiens, UniProt P43351); type: functional, biochemical
T1 sequence (P43351 whole entry): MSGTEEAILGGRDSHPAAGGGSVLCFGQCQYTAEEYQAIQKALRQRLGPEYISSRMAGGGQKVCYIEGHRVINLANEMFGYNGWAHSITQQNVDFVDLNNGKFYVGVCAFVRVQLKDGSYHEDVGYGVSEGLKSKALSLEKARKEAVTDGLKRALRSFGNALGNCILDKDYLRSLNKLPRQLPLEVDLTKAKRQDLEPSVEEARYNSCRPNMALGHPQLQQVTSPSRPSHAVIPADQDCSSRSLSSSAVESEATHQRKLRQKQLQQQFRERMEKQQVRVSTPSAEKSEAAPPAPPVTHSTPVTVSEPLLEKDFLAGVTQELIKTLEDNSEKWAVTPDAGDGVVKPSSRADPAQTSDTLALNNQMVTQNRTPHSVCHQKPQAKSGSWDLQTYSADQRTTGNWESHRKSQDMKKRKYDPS

[2] = C. albicans growth with fluconazole, confirmation, fluorescence, retest (AID 2467); type: functional, cell-based
[3] = microbe, parasite or virus in culture; type: functional; details: Mycobacterium tuberculosis
[4] = NIH-3T3 fibroblast cytotoxicity, dose response, cytotoxicity control, cell-based, fluorescence, Alamar Blue, secondary assay (AID 2327); type: functional;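 further: NIH-3T3 mouse fibroblasts cultured with fluconazole at 8 µg/mL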
Vero = assay: cells; type: functional; details: Chlorocebus sabaeus
[5] = control 3'UTR Renilla luciferase suppression, dose response, counter-screen for Shn3 inhibitor project, cell-based, Clone20-Shn3RL, cherry-picked (AID 624133); type: functional
[6] = HepG2 cell cytotoxicity, dose response, cytotoxicity control for Shn3 inhibitor project, CellTiter-Glo, cherry-picked (AID 624134); type: functional, cell-based
[7] = Shn3 3'UTR reporter inhibitors, dose response, cell-based, Clone20 osteoblasts, firefly luciferase, cherry-picked (AID 624132); type: functional;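 further: firefly luciferase luminescence from reporter carrying the Shn3 3'UTR in osteoblasts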
[8] = cytotoxicity in OVCAR8 ovarian cancer cells, dose response, PAX8 project, cell-based, plate reader, dry powder samples (AID 743197); type: functional; details: OVCAR-8
Paired box protein Pax-8 = Paired box protein Pax-8 (Homo sapiens, UniProt Q06710); assay: inhibitors of PAX8-driven TPO luciferase reporter, dose response, RMG-I cells, cherry-pick (AID 687027); type: functional, cell-based;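 further: luciferase reporter driven by Pax8 target thyroperoxidase promoter measured by SteadyGlo luminescence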
[9] = P. falciparum Dd2 growth inhibitors, dose response, SYBR Green, cherry-picked samples (AID 1159567); type: functional, cell-based
[10] = target: T2, Microphthalmia-associated transcription factor (Homo sapiens, UniProt O75030); assay: TRPM1 promoter luciferase signal decrease, dose response, MITF inhibitor project, cell-based, SK-MEL-5, cherry-picked, set 3 (AID 493073); type: functional
T2 sequence (O75030 whole entry): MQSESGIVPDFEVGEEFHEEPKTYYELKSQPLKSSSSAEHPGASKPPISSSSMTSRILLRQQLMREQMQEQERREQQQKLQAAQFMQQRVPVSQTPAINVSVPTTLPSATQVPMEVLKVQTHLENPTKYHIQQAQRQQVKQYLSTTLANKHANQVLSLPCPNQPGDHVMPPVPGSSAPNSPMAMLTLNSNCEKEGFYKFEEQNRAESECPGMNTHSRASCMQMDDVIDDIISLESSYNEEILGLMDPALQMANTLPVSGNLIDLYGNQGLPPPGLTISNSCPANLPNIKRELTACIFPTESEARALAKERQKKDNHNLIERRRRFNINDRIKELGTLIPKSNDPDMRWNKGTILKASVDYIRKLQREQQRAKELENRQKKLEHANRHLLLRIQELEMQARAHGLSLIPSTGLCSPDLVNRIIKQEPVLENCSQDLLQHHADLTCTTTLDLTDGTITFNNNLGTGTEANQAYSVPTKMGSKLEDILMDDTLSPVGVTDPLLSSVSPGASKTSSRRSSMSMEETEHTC

Chain of Paired box protein Pax-8 (Q06710 whole entry): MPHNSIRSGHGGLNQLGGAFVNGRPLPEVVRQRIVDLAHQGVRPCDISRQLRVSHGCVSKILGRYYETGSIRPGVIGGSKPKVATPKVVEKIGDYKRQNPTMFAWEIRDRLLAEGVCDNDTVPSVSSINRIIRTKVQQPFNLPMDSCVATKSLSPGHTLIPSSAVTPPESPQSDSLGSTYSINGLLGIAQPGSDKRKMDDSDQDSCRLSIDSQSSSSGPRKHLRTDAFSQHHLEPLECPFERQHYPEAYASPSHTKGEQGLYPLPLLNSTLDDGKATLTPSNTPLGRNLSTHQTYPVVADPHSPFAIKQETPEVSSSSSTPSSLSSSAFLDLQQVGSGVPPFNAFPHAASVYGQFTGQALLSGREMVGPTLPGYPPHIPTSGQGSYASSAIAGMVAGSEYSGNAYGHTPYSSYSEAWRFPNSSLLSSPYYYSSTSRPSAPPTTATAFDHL

Structure (SMILES): CCN(CC)CCN1CCn2c3c(c4cc(C)ccc42)CCCC31 (stereo not given)
- AC50 [1]: 17.6 µM (active)

Structure (SMILES): CCC(=O)N1c2ccc(S(=O)(=O)CCC(=O)N3CCn4c3nc3ccccc34)cc2CC1C (stereo not given)
- EC50 [2]: 4.5 µM (active)
- CC50 [3]: > 40 µM (active)
- EC50 [4]: 42.9 µM (active)

Structure (SMILES): CCc1ccc(NCc2ccc(OC)c(Cn3ccnc3)c2)cc1
- CC50 [3]: 24.2 µM (active)

Structure (SMILES): Cc1cccc(C(=O)Nc2cccc(S(=O)(=O)NCc3ccco3)c2)c1
- CC50 (Vero): 23.6 µM (active)

Structure (SMILES): c1ccc(CN2CCN(c3ncnc4c3[nH]c3ccccc34)CC2)cc1
- AC50 [5]: 5.4 µM (active)
- AC50 [6]: 31.4 µM (active)
- AC50 [7]: 2.06 µM (active)

Structure (SMILES): C=C1C(=O)OC2CC1C(OC(C)=O)CC(C)=CCCC(C)=CCCC2(C)O (stereo not given)
- AC50 [5]: 4.19 µM (active)
- AC50 [6]: 15.1 µM (active)
- AC50 [7]: 0.91 µM (active)

Structure (SMILES): COc1cccc(S(=O)(=O)N(C)C[C@H]2OCc3ccccc3-c3c(n(C)c4ccccc34)C(=O)N([C@H](C)CO)C[C@H]2C)c1
- AC50 [8]: > 70 µM (inactive)
- AC50 (Paired box protein Pax-8): 9.53 µM (active)

Structure (SMILES): Cc1ccc(S(=O)(=O)N(C)C[C@@H]2OCCCC[C@H](C)Oc3ccc(NS(=O)(=O)c4cccs4)cc3C(=O)N([C@H](C)CO)C[C@H]2C)cc1
- AC50 [8]: > 70 µM (inactive)
- AC50 (Paired box protein Pax-8): 6.6 µM (active)

Structure (SMILES): CC(=O)Nc1cccc(-c2cc(N3CCN(CCO)CC3)n3nccc3n2)c1
- AC50 [1]: 27.6 µM (active)

Structure (SMILES): COc1ccc(S(=O)(=O)N(C)C[C@H]2OCCCC[C@@H](C)Oc3ccc(NS(=O)(=O)c4c(C)noc4C)cc3C(=O)N([C@H](C)CO)C[C@H]2C)cc1
- AC50 [8]: 66 µM (active)
- AC50 (Paired box protein Pax-8): 7.76 µM (active)

Structure (SMILES): C[C@H](CO)N1C[C@H](C)[C@H](CN(C)Cc2ccc(C(F)(F)F)cc2)OCCCC[C@H](C)Oc2ccc(NC(=O)c3ccccc3)cc2C1=O
- AC50 [8]: 43.7 µM (active)
- AC50 (Paired box protein Pax-8): 9.33 µM (active)

Structure (SMILES): CN(C)CCCNc1nc2cc(-c3cnn(C)c3)sc2c(=O)n1C
- AC50 [1]: 10.2 µM (active)

Structure (SMILES): Cc1ccccc1S(=O)(=O)N1[C@H](CO)[C@@H](c2ccc(C#CC3CC3)cc2)[C@@H]1C#N
- AC50 [9]: 4.33 µM (active)

Structure (SMILES): COc1cccc(CNC(=O)c2cc3c(c(-c4cccc(-c5ccncc5)c4)n2)[C@@H](CCO)N([S@+]([O-])C(C)(C)C)C3)c1
- AC50 [9]: 4.32 µM (active)

Structure (SMILES): C=C1C(=O)O[C@@]23[C@H]1CC[C@@H](C)[C@@H]2CC[C@@]1(C)O[C@@H]31 [ARTEANNUIN B]
- AC50 [10]: 5.22 µM (active)
